Reference: patent US20240002332A1, “Small Molecule Inhibitors of SARS-CoV-2 Infections” (priority 2020, published 2024)
≈ marks a conversion by molar mass, not a printed value. Like-named read-outs stand apart in the source and are kept apart here.

What was measured:
[1] = Parallel artificial membrane permeability assay (PAMPA); settings: for Papp / Permeability: PAMPA; for Permeability: Tier I ADME
[2] = Kinetic solubility (Tier I ADME); settings: kinetic from dmso stock
[3] = test system: SARS CoV-2 (USA_WA1/2020); assay: Cytopathic effect (CPE) assay; assay type: cell-based; settings: for Emax: read-out: Efficacy CPE assay
[4] = Rat liver microsomal (RLM) stability; settings: for half-life: rat
Vero-E6 = assay: Cytotoxicity counter screen (cell viability, CellTiter-Glo); assay type: cell-based; settings: for IC50: Chlorocebus sabaeus, read-out: IC50 (μM) cell viability
Description: Compound cytotoxicity was assessed in a BSL-2 counter screen as follows: Cell culture media (MEM, 1% Pen/Strep/GlutaMax, 1% HEPES, 2% HI FBS) was dispensed at 5 μl/well into ARPs and incubated at room temperature to allow for compound dissolution. Vero-E6 (selected for high ACE2 expression) was dispensed into assay plates at 4000 cells/well in 25 μl media. Assay plates were incubated for 72 h at 37 C, 5% CO2, 90% humidity. Then, 30 μl/well of CellTiter-Glo (Promega #G7573) was dispensed into the assay plate. Luminescence was read using a BMG PHERAstar plate reader following incubation at room temperature for 10 min to measure cell viability.

SARS-CoV-2 [5] = assay: SARS-CoV-2 viral titer in human bronchial epithelial cells (HBEC; EpiAirway); assay type: cell-based; settings: dilutions 0.01, 0.1, 1, 10 micrograms per mL
Description: In the first part of the experiment, the test compounds were diluted in Assay medium (AIR-100-ASY). The test compound dilutions (0.01, 0.1, 1, 10 micrograms per mL) were added to each insert on the apical layer (0.15 mL) and basal layer (0.85 mL). Following the 1 h treatment, the apical medium was removed, and the basal side was replaced with fresh compound. Virus (0.15 mL) was then added to each insert on the apical layer, removed after 1 h and washed with 0.4 mL TEER buffer. The basal side medium/compound was replaced with 1 mL of Assay medium. Every twenty-four hours, the apical layer of the tissues were washed with 0.4 mL of TEER buffer and aliquoted to separate microfuge tubes. Trizol LS (1.2 mL) was added to each tube, pipetted up and down several times and stored at −80° C. The basal layer supernatant (1 mL) was collected from each well, aliquoted into separate microfuge tubes and stored at −80° C. The basal side medium was replaced with 1 mL of Maintenance Medium.
In the second part of the experiment, RNA was isolated from the trizol samples and the supernatants from all treatments were tittered by plaque assay or TCID50 to determine the amount of virus present in each sample.

in vitro [6] = settings: rat, microsomes
physchem = settings: kinetic from dmso stock
in vitro [7] = settings: PAMPA
SARS-CoV-2 [8] = settings: EIDD-2801 250 mpk BID; Compound P3 60 mpk BID
Description: EIDD-2801 (molnupiravir) was chosen as the positive control at 250 mpk BID oral dose.

[9] = Pharmacokinetics in mice IV 3 and PO 10 mg/kg; plasma, lung and liver
ZIKV = settings: cited from earlier work
[10] = Severe acute respiratory syndrome coronavirus 2, Vero C1008, % inhibition of CPE, SARS-CoV-2-infected Vero-E6, 72 h
[11] = Severe acute respiratory syndrome coronavirus 2, Vero C1008, rescue IC50, SARS-CoV-2-infected Vero-E6, 72 h
[12] = Vero C1008, uninfected Vero-E6, 72 h, CellTiter-Glo
[13] = uninfected Vero-E6, 72 h, CellTiter-Glo
[14] = Severe acute respiratory syndrome coronavirus 2, Vero C1008, 72 h
[15] = mice, Compound P3 dosed PO 10 mg/kg, Liver
[16] = mice, Compound P3 dosed PO 10 mg/kg, Plasma
[17] = mouse Plasma, Compound P3 dosed IV 3 mg/kg
[18] = mouse Plasma, Compound P3 dosed PO 10 mg/kg

O=C(Nc1ccc([N+](=O)[O-])cc1Cl)c1cc(Cl)ccc1OC1CCNCC1 [Compound 4, 5-chloro-N-(2-chloro-4-nitrophenyl)-2-(piperidin-4-yloxy)benzamide]
Papp [1]: 516 ×10⁻⁶ cm/s
solubility [2]: 8.4 µg/mL (≈ 20.5 µM)
Emax [3, 10]: -8.3%
IC50 [3, 11]: 5.1 µM
half-life ([4]; rat liver microsomes): > 30 min
IC50 (Vero-E6; [12]): 4.05 µM

O=C(Nc1ccc([N+](=O)[O-])cc1Cl)c1cc(Br)ccc1O [Compound 6, 5-bromo-N-(2-chloro-4-nitrophenyl)-2-hydroxybenzamide]
Permeability [1]: 67 10^−6 cm/sec
inhibition of SARS-CoV-2 (viral titer) (SARS-CoV-2 [5]): effectively inhibited SARS-CoV-2 in human bronchial epithelial cells at sub-nanomolar and nanomolar concentrations
half-life ([4]; microsomes): > 30 min
IC50 (Vero-E6; Vero C1008, 72 h): 0.4 µM
Efficacy cell viability (Vero-E6; [13]): −94.8

O=C(Nc1ccc([N+](=O)[O-])cc1)c1cc(Cl)ccc1O [Compound 24, 5-chloro-2-hydroxy-N-(4-nitrophenyl)benzamide]
Permeability [1]: 127.13 10^−6 cm/sec
RLM stability (T1/2 min) ([4]; rat liver microsomes): 22 min
IC50 (Vero-E6; Vero C1008, 72 h): 0.57 µM
Efficacy cell viability (Vero-E6; [13]): −93.1

COc1cc([N+](=O)[O-])ccc1NC(=O)c1cc(Cl)ccc1O [Compound 27, 5-chloro-2-hydroxy-N-(2-methoxy-4-nitrophenyl)benzamide]
Permeability [1]: 334.4 10^−6 cm/sec
half-life ([4]; microsomes): > 30 min
IC50 (Vero-E6; Vero C1008, 72 h): 0.64 µM
Efficacy cell viability (Vero-E6; [13]): −92.9

N#Cc1ccc(NC(=O)c2cc(Cl)ccc2O)c(Cl)c1 [Compound 32, 5-chloro-N-(2-chloro-4-cyanophenyl)-2-hydroxybenzamide]
Papp [1]: 5.16 ×10⁻⁶ cm/s
half-life ([4]; rat liver microsomes): > 30 min
IC50 (Vero-E6; [12]): 1.01 µM
Efficacy cell viability (Vero-E6; [13]): −99.6

O=C(Nc1ccc(C(F)(F)F)cc1)c1cc(Cl)ccc1O [Compound 39, 5-chloro-2-hydroxy-N-(4-(trifluoromethyl)phenyl)benzamide]
Papp [1]: 22.3 ×10⁻⁶ cm/s
half-life ([4]; microsomes): > 30 min
IC50 (Vero-E6; Vero C1008, 72 h): 0.45 µM
Efficacy cell viability (Vero-E6; [13]): −94.6

O=C(Nc1ccc(C(F)(F)F)c(F)c1)c1cc(Br)ccc1O [Compound 59, 5-bromo-N-(3-fluoro-4-(trifluoromethyl)phenyl)-2-hydroxybenzamide]
half-life (in vitro [6]): > 30 min
IC50 (Vero-E6; [12]): 0.45 µM
Efficacy cell viability (Vero-E6; [13]): −91.7

O=C(Oc1ccc(Cl)cc1C(=O)Nc1ccc([N+](=O)[O-])cc1Cl)c1ccc(C(F)(F)F)cc1 [Compound P1, 4-chloro-2-((2-chloro-4-nitrophenyl)carbamoyl)phenyl 4-(trifluoromethyl)benzoate]
Emax [3, 10]: 34%
IC50 [3, 11]: 0.11 µM
solubility (physchem): < 1 µg/mL
IC50 (Vero-E6; [12]): 0.57 µM
Efficacy cell viability (Vero-E6; [13]): −96.34
Papp (in vitro [7]): < 2.6 ×10⁻⁶ cm/s

CCCCCCCC(=O)Oc1ccc(Cl)cc1C(=O)Nc1ccc([N+](=O)[O-])cc1Cl [Compound P2, 4-chloro-2-((2-chloro-4-nitrophenyl)carbamoyl)phenyl octanoate]
Emax [3, 10]: 36.5%
IC50 [3, 11]: 0.1 µM
solubility (physchem): 1.1 µg/mL (≈ 2.43 µM)
IC50 (Vero-E6; [12]): 0.57 µM
Efficacy cell viability (Vero-E6; [13]): −95.8
Papp (in vitro [7]): < 6.5 ×10⁻⁶ cm/s

CC(=O)Oc1ccc(Cl)cc1C(=O)Nc1ccc([N+](=O)[O-])cc1Cl [Compound P4, 4-chloro-2-((2-chloro-4-nitrophenyl)carbamoyl)phenyl acetate]
Emax [3, 10]: 36.2%
IC50 [3, 11]: 0.25 µM
solubility (physchem): < 1 µg/mL
IC50 (Vero-E6; [12]): 0.57 µM
Efficacy cell viability (Vero-E6; [13]): −93.0
Papp (in vitro [7]): 632 ×10⁻⁶ cm/s

COCC(=O)Oc1ccc(Cl)cc1C(=O)Nc1ccc([N+](=O)[O-])cc1Cl [Compound P5, 4-chloro-2-((2-chloro-4-nitrophenyl)carbamoyl)phenyl 2-methoxyacetate]
Emax [3, 10]: 37%
IC50 [3, 11]: 0.11 µM
solubility (physchem): < 1 µg/mL
IC50 (Vero-E6; [12]): 0.51 µM
Efficacy cell viability (Vero-E6; [13]): −91.2

CC(C)OC(=O)Oc1ccc(Cl)cc1C(=O)Nc1ccc([N+](=O)[O-])cc1Cl [Compound P6, 4-chloro-2-((2-chloro-4-nitrophenyl)carbamoyl)phenyl isopropyl carbonate]
Emax [3, 10]: 37.1%
IC50 [3, 11]: 0.11 µM
solubility (physchem): < 1 µg/mL
IC50 (Vero-E6; [12]): 0.45 µM
Efficacy cell viability (Vero-E6; [13]): −82.3
Papp (in vitro [7]; pH 5): 57 ×10⁻⁶ cm/s

O=C(Oc1ccc(Cl)cc1C(=O)Nc1ccc([N+](=O)[O-])cc1Cl)c1ccccc1 [Compound P7, 4-chloro-2-((2-chloro-4-nitrophenyl)carbamoyl)phenyl benzoate]
Emax [3, 10]: 26.9%
IC50 [3, 11]: 0.13 µM
solubility (physchem): < 1 µg/mL
IC50 (Vero-E6; [12]): 0.32 µM
Efficacy cell viability (Vero-E6; [13]): −94.0

CCOP(=O)(OCC)Oc1ccc(Cl)cc1C(=O)Nc1ccc([N+](=O)[O-])cc1Cl [Compound P8, 4-chloro-2-((2-chloro-4-nitrophenyl)carbamoyl)phenyl diethyl phosphate]
Papp [1]: 982 ×10⁻⁶ cm/s
solubility [2]: < 1 µg/mL
IC50 [3, 14]: 0.41 µM
Emax [3, 14]: 36.8%
half-life ([4]; microsomes): > 30 min
IC50 (Vero-E6; Vero C1008, 72 h): 0.91 µM
Efficacy cell viability (Vero-E6; [13]): −90.6

CC(C)COC(=O)Oc1ccc(Cl)cc1C(=O)Nc1ccc([N+](=O)[O-])cc1Cl [Compound P9, 4-chloro-2-((2-chloro-4-nitrophenyl)carbamoyl)phenyl isobutyl carbonate]
Emax [3, 10]: 35.2%
IC50 [3, 11]: 0.13 µM
solubility (physchem): 4.48 µg/mL (≈ 10.5 µM)
IC50 (Vero-E6; [12]): 0.57 µM
Efficacy cell viability (Vero-E6; [13]): −91.0

CC(C)C(=O)OC[C@H]1O[C@@H](n2ccc(NO)nc2=O)[C@H](O)[C@@H]1O [EIDD-2801, reference compound]
IHC immunoreactivity staining in the right lung (SARS-CoV-2 [8]): lowered in severity

O=C(Nc1ccc([N+](=O)[O-])cc1Cl)c1cc(Cl)ccc1O [Niclosamide, 5-chloro-N-(2-chloro-4-nitrophenyl)-2-hydroxybenzamide, reference compound]
permeability in PAMPA ([1]; result in words): unable to be quantified in the acceptor compartment
AUC_% Extrap [9, 15]: 4.4%
t1/2 [9, 15]: 7.3 h
AUC_% Extrap ([9]; mice, Compound P3 dosed PO 10 mg/kg, Lung): 0.6%
AUC0-INF [9, 16]: 1620 ng·h/mL
AUC_% Extrap [9, 16]: 1.0%
AUC_%Extrap_obs [9, 17]: 0.3%
Clast [9, 17]: 0.329 ng/mL
Tlast [9, 17]: 30 h
AUCINF_obs [9, 18]: 1620 ng·h/mL
AUC_%Extrap_obs [9, 18]: 1.0%
Clast [9, 18]: 4.04 ng/mL
Cmax [9, 18]: 346 ng/mL
Tlast [9, 18]: 30 h
t½ [9, 18]: 2.7 h
AUC(0-inf) ([9]; mouse, liver, po, 10 mg/kg): 9250 ng·h/mL
AUC(0-t) ([9]; mouse, liver, po, 10 mg/kg): 8850 ng·h/mL
Cmax ([9]; mouse, liver, po, 10 mg/kg): 882 ng/mL
AUC(0-inf) ([9]; mouse, lung, po, 10 mg/kg): 3080 ng·h/mL
AUC(0-t) ([9]; mouse, lung, po, 10 mg/kg): 3060 ng·h/mL
Cmax ([9]; mouse, lung, po, 10 mg/kg): 397 ng/mL
half-life ([9]; mouse, lung, po, 10 mg/kg): 258 min
AUC(0-inf) ([9]; mouse, plasma, iv, 3 mg/kg): 587 ng·h/mL
AUC(0-t) ([9]; mouse, plasma, iv, 3 mg/kg): 585 ng·h/mL
Cmax ([9]; mouse, plasma, iv, 3 mg/kg): 168 ng/mL
Tmax ([9]; mouse, plasma, iv, 3 mg/kg): 4.98 min
half-life ([9]; mouse, plasma, iv, 3 mg/kg): 216 min
AUC(0-t) ([9]; mouse, plasma, po, 10 mg/kg): 1600 ng·h/mL
half-life ([9]; mouse, plasma, po, 10 mg/kg): 162 min
RLM stability (T1/2 min) ([4]; rat liver microsomes): >30 min
half-life ([4]; rat liver microsomes): > 30 min
ZIKV growth (ZIKV; early stages and 24 h post infection): inhibited ZIKV growth
ZIKV titer (ZIKV; human placental epithelial cells and iPSC-derived human neural progenitor cells): reduced ZIKV titer
